# Measured values taken from patent US4087528A, “2,4-Diamino-5-benzylpyrimidines” (Abbott Laboratories, priority 1976, dated 1978).
# Experiments:
# E. Coli 3100 = experiment: In vitro potentiation of sulfonamides, two-fold tube dilution test in BBL Nutrient broth (Table 5); assay type: cell-based, Escherichia Coli; details: MIC of sulfonamide alone vs in combination
# Experimental: The potentiation properties of the compounds, i.e., compounds V - VIII in various combinations with sulfa compounds, i.e., sulfonamides (sulfamethoxazole, sulfadiazine, sulfamethazine and sulfamerazine) were tested. The method was a two-fold tube dilution test using BBL Nutrient broth in 5 ml. amounts. The inoculum was 0.1 ml. of a 10^-3 dilution 24 hour broth culture of Escherichia Coli 3100. The test was incubated at 37° C. for 18 hours. | *The potentiation effect shown is determined by measuring the minimum | inhibitory concentration (MIC) of the sulfonamide alone and in combinatio | with the compound at the indicated ratios.
# [1] = tested on: Streptococcus pyogenes C203; experiment: Tube dilution test, Mueller Hinton Medium (Table 3); assay type: cell-based; details: 18 h, read-out: Minimum Inhibitory Concentration
# Experimental: (§1) Escherichia coli Juhl and Escherichia coli 3100. The method used was a two-fold tube dilution test in 5 ml. amounts of minimal medium. The inoculum was 0.1 ml. of a 1:1T dilution of a 24 hour broth culture. The test was incubated at 37° C. for 18 hours. A similar test was made on other strains with the compounds (V, VI, VII and VIII) in 5 ml. amounts of Mueller Hinton Medium.
# [2] = tested on: Staphylococcus aureus 209P; experiment: as above; assay type: cell-based; details: 18 h, read-out: Minimum Inhibitory Concentration
# Experimental: as §1
# [3] = tested on: Staphylococcus aureus Smith; experiment: as above; assay type: cell-based; details: 18 h, read-out: Minimum Inhibitory Concentration
# Experimental: as §1
# E. Coli (Resistant) = experiment: microbe, parasite or virus in culture; assay type: cell-based, Escherichia coli; details: for MIC: Escherichia coli, 18 h, read-out: Minimum Inhibitory Concentration
# Experimental: (§2) Compounds V - VIII were tested and compared with trimethoprim, as control, against two external strains, (Escherichia coli) a sensitive No. 114 and a No. 114 carrying a resistant (R) factor which mediates the synthesis of an altered dihydrofolate reductase; S. G. R. Amyes and J. T. Smith, Biochem. and Biophys., Res. Comm., 58, 412 (1974).
# (§3) The method used was a two-fold tube dilution test in 5 ml. amounts of minimal medium. The inoculum was 0.1 ml. of a 1:1T dilution of a 24 hour broth culture. The test was incubated at 37° C. for 18 hours.
# E. Coli 114 Sensitive = experiment: Two-fold tube dilution test vs. trimethoprim-sensitive E. coli (Table 4); assay type: cell-based; details: Escherichia coli, minimal medium, 37° C., 18 hours, read-out: Minimum Inhibitory Concentration
# Experimental: as §2, §3
# [4] = tested on: Salmonella typhimurium Ed 9; experiment: Two-fold tube dilution test, minimal medium (Table 2); assay type: cell-based; details: Salmonella enterica, 37° C., 18 hours, read-out: Minimum Inhibitory Concentration
# Experimental: (§4) The four compounds, i.e., compounds V, VI, VII, VIII, were tested against a series of strains including:
# (§5) Escherichia coli Juhl and Escherichia coli 3100. The method used was a two-fold tube dilution test in 5 ml. amounts of minimal medium. The inoculum was 0.1 ml. of a 1:1T dilution of a 24 hour broth culture. The test was incubated at 37° C. for 18 hours.
# Escherichia coli 3100 = experiment: as above; assay type: cell-based; details: 37° C., 18 hours, read-out: Minimum Inhibitory Concentration
# Experimental: as §4, §5
# [5] = tested on: Proteus mirabilis Finland #9; experiment: as above; assay type: cell-based; details: 37° C., 18 hours, read-out: Minimum Inhibitory Concentration
# Experimental: as §4, §5
# [6] = tested on: Klebsiella pneumoniae 8045; experiment: as above; assay type: cell-based; details: 37° C., 18 hours, read-out: Minimum Inhibitory Concentration
# Experimental: as §4, §5
# Escherichia coli Juhl = experiment: as above; assay type: cell-based; details: 37° C., 18 hours, read-out: Minimum Inhibitory Concentration
# Experimental: as §4, §5
# [7] = tested on: Enterobacter aerogenes 13048; experiment: as above; assay type: cell-based; details: Klebsiella aerogenes, 37° C., 18 hours, read-out: Minimum Inhibitory Concentration
# Experimental: as §4, §5
# P. Mirabilis = experiment: Acute Mouse Protection Test (Table 6); assay type: in vivo, Female, Swiss albino mice; details: approximate, combination with sulfamethoxazole, medicated 1 and 5 hours post-infection, 7 days
# Experimental: (§6) The test bacteria were transferred to Brain Heart Infusion Broth and incubated at 37° C. for 18 hours. Log dilutions of the organism were made in BHI broth and mixed with 3% hog gastric mucin.
# (§7) Female, Swiss albino mice, 18 - 20 grams, were injected intraperitoneally with 0.75 ml. of inoculum.
# (§8) The optimum dilution was one in which each mouse received 10 - 10 LD50 's of the infecting organism.
# (§9) The test compound was diluted in such a way that there were 5 drug levels (each level is half as concentrated as the one above) in each test. Ten infected mice were treated with each level of drug. The mice were medicated 1 and 5 hours post-infection.
# E. Coli (Juhl) = experiment: Acute Mouse Protection Test (Table 6); assay type: in vivo, Female, Swiss albino mice; details: approximate, combination with sulfamethoxazole, medicated 1 and 5 hours post-infection, 7 days
# Experimental: as §6, §7, §8, §9
# P. Vulgaris = experiment: Acute Mouse Protection Test (Table 6); assay type: in vivo, Female, Swiss albino mice; details: approximate, combination with sulfamethoxazole, medicated 1 and 5 hours post-infection, 7 days
# Experimental: as §6, §7, §8, §9
# E. Coli (48) = experiment: Acute Mouse Protection Test (Table 6); assay type: in vivo, Female, Swiss albino mice; details: approximate, combination with sulfamethoxazole, medicated 1 and 5 hours post-infection, 7 days
# Experimental: as §6, §7, §8, §9
# [8] = Sulfadiazine, Compound/Sulfa Ratio 1:1
# [9] = Sulfadiazine, Compound/Sulfa Ratio 1:5
Structure (SMILES),Potentiation (E. Coli 3100; [8]),Potentiation (E. Coli 3100; [9]),MIC [1],MIC [2],MIC [3],MIC (E. Coli (Resistant)),MIC (E. Coli 114 Sensitive),MIC [4],MIC (Escherichia coli 3100),MIC [5],MIC [6],MIC (Escherichia coli Juhl),MIC [7],"CD50, Cmpd. part of the Sulfa/Cmpd. combination (P. Mirabilis)","CD50, Cmpd. part of the Sulfa/Cmpd. combination (E. Coli (Juhl))","CD50, Cmpd. part of the Sulfa/Cmpd. combination (P. Vulgaris)","CD50, Cmpd. part of the Sulfa/Cmpd. combination (E. Coli (48))",other results
"Nc1ncc(Cc2cc(Cl)c(N)c(Cl)c2)c(N)n1 [V, 2,4-Diamino-5-(4-amino-3,5-dichlorobenzyl)pyrimidine]",31.0 X,3.1 X,6.2 µg/mL,6.2 µg/mL,25 µg/mL,400 µg/mL,1.56 µg/mL,3.1 µg/mL,0.39 µg/mL,25 µg/mL,1.56 µg/mL,0.78 µg/mL,1.56 µg/mL,30 Mg./Kg.,45 Mg./Kg.,–,–,–
"CNc1c(Cl)cc(Cc2cnc(N)nc2N)cc1Cl [VI, 2,4-Diamino-5-(3,5-dichloro-4-methylaminobenzyl)pyrimidine]",15.9 X,3.1 X,6.2 µg/mL,3.1 µg/mL,6.2 µg/mL,> 400 µg/mL,1.56 µg/mL,3.1 µg/mL,3.1 µg/mL,12.5 µg/mL,6.2 µg/mL,6.2 µg/mL,3.1 µg/mL,60 Mg./Kg.,30 Mg./Kg.,2 Mg./Kg.,3 Mg./Kg.,–
"COc1cc(Cc2cnc(N)nc2N)cc(OC)c1OC [Trimethoprim, reference compound]",–,–,–,–,–,3000 µg/mL,0.2 µg/mL,–,–,–,–,–,–,–,–,–,–,increase in resistance caused by the resistant (R) factor (E. Coli (Resistant); R factor in E. Coli 114 versus sensitive): several thousand-fold
"CCNc1c(Cl)cc(Cc2cnc(N)nc2N)cc1Cl [VII, 2,4-Diamino-5-(3,5-dichloro-4-ethylaminobenzyl)pyrimidine]",8.0 X,6.2 X,12.5 µg/mL,3.1 µg/mL,6.2 µg/mL,200 µg/mL,3.1 µg/mL,12.5 µg/mL,6.2 µg/mL,50 µg/mL,12.5 µg/mL,3.1 µg/mL,25 µg/mL,30 Mg./Kg.,35 Mg./Kg.,2 Mg./Kg.,2 Mg./Kg.,"Potentiation (E. Coli 3100; Sulfamerazine, Compound/Sulfa Ratio 1:1): 8.0 X; Potentiation (E. Coli 3100; Sulfamerazine, Compound/Sulfa Ratio 1:5): 3.2 X; Potentiation (E. Coli 3100; Sulfamethazine, Compound/Sulfa Ratio 1:1): 4.0 X; Potentiation (E. Coli 3100; Sulfamethazine, Compound/Sulfa Ratio 1:5): 3.2 X; Potentiation (E. Coli 3100; Sulfamethoxazole, Compound/Sulfa Ratio 1:1): 4.0 X; Potentiation (E. Coli 3100; Sulfamethoxazole, Compound/Sulfa Ratio 1:5): 3.1 X"
"CN(C)c1c(Cl)cc(Cc2cnc(N)nc2N)cc1Cl [VIII, 2,4-Diamino-5-(3,5-dichloro-4-dimethylaminobenzyl)pyrimidine]",8.0 X,1.6 X,3.1 µg/mL,1.56 µg/mL,3.1 µg/mL,100 µg/mL,6.2 µg/mL,6.2 µg/mL,6.2 µg/mL,25 µg/mL,6.2 µg/mL,6.2 µg/mL,3.1 µg/mL,80 Mg./Kg.,45 Mg./Kg.,2 Mg./Kg.,3 Mg./Kg.,–
